Measurements reported in PubChem BioAssay (NCI).
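Grown in 96-well plates, cells were treated for 48 hours with each compound at five concentrations. Insufficient inhibition: endpoint recorded as highest concentration tested. Definition used: TGI = concentration required for complete inhibition of growth.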

Tests used:
Assay in all cases: growth of human tumour cells (NCI), 48 h
HCT-116 colon = tested on: HCT-116 colon
COLO 205 colon = tested on: COLO 205 colon
M19-MEL melanoma = tested on: M19-MEL melanoma
HCT-15 colon = tested on: HCT-15 colon
SK-OV-3 ovarian = tested on: SK-OV-3 ovarian
SNB-75 CNS = tested on: SNB-75 CNS
SF-295 CNS = tested on: SF-295 CNS
UACC-257 melanoma = tested on: UACC-257 melanoma
SN12C renal = tested on: SN12C renal
RPMI-8226 leukemia = tested on: RPMI-8226 leukemia
SF-539 CNS = tested on: SF-539 CNS
SK-MEL-5 melanoma = tested on: SK-MEL-5 melanoma
LOX IMVI melanoma = tested on: LOX IMVI melanoma
DLD-1 colon = tested on: DLD-1 colon
KM20L2 colon = tested on: KM20L2 colon
HOP-92 NSCLC = tested on: HOP-92 NSCLC
SW-620 colon = tested on: SW-620 colon
SK-MEL-28 melanoma = tested on: SK-MEL-28 melanoma
SR leukemia = tested on: SR leukemia
HT29 colon = tested on: HT29 colon
HOP-62 NSCLC = tested on: HOP-62 NSCLC
HOP-18 NSCLC = tested on: HOP-18 NSCLC
OVCAR-4 ovarian = tested on: OVCAR-4 ovarian
U251 CNS = tested on: U251 CNS
UO-31 renal = tested on: UO-31 renal
KM12 colon = tested on: KM12 colon
SNB-78 CNS = tested on: SNB-78 CNS
A549 NSCLC = tested on: A549 NSCLC
OVCAR-3 ovarian = tested on: OVCAR-3 ovarian
A498 renal = tested on: A498 renal
XF 498 CNS = tested on: XF 498 CNS
NCI-H460 lung = tested on: NCI-H460 lung
RXF 393 renal = tested on: RXF 393 renal
MALME-3M melanoma = tested on: MALME-3M melanoma
SF-268 CNS = tested on: SF-268 CNS
EKVX NSCLC = tested on: EKVX NSCLC
786-0 renal = tested on: 786-0 renal
DMS 273 small cell lung = tested on: DMS 273 small cell lung
M14 melanoma = tested on: M14 melanoma
NCI-H23 lung = tested on: NCI-H23 lung
LXFL 529 NSCLC = tested on: LXFL 529 NSCLC
NCI-H226 lung = tested on: NCI-H226 lung
K-562 leukemia = tested on: K-562 leukemia
HCC-2998 colon = tested on: HCC-2998 colon
CAKI-1 renal = tested on: CAKI-1 renal
MOLT-4 leukemia = tested on: MOLT-4 leukemia
DMS 114 small cell lung = tested on: DMS 114 small cell lung
HL-60(TB) leukemia = tested on: HL-60(TB) leukemia
OVCAR-5 ovarian = tested on: OVCAR-5 ovarian
SK-MEL-2 melanoma = tested on: SK-MEL-2 melanoma
ACHN renal = tested on: ACHN renal
TK-10 renal = tested on: TK-10 renal
UACC-62 melanoma = tested on: UACC-62 melanoma
IGROV1 ovarian = tested on: IGROV1 ovarian
CCRF-CEM leukemia = tested on: CCRF-CEM leukemia
OVCAR-8 ovarian = tested on: OVCAR-8 ovarian
SNB-19 CNS = tested on: SNB-19 CNS
NCI-H522 lung = tested on: NCI-H522 lung
RXF-631 renal = tested on: RXF-631 renal

Measured: TGI

COc1cc(OC)c(C2CC=Cc3c(OC)cc(OC)c(OC)c32)cc1OC (stereo not given)
not listed: SNB-19 CNS | NCI-H522 lung | RXF-631 renal
> 100 µM: all other assays above

COC(=O)c1c(N)n[nH]c1N
not listed: HCT-15 colon | HT29 colon | HOP-18 NSCLC | MALME-3M melanoma | LXFL 529 NSCLC | NCI-H226 lung | DMS 114 small cell lung | OVCAR-5 ovarian | ACHN renal
> 100 µM: all other assays above

O=C(Cn1ccnc1[N+](=O)[O-])c1ccc(F)cc1
not listed: HCT-116 colon | DLD-1 colon | SR leukemia | SNB-78 CNS | HCC-2998 colon | RXF-631 renal
> 100 µM: all other assays above

CC(=O)c1ccc(NC(=O)C(=O)Nn2c(=S)[nH]c3ccccc3c2=O)cc1
not listed: DMS 273 small cell lung | CCRF-CEM leukemia | RXF-631 renal
> 100 µM: all other assays above
